The results in this text go back to patent US8933224B2, “Triazine derivatives” (Pfizer Inc., priority 2013, dated 2015).

Where only a bound is given, the exact number is not on record here.

Sequence of rat PDE10 enzyme (Q9QYJ6 24-794): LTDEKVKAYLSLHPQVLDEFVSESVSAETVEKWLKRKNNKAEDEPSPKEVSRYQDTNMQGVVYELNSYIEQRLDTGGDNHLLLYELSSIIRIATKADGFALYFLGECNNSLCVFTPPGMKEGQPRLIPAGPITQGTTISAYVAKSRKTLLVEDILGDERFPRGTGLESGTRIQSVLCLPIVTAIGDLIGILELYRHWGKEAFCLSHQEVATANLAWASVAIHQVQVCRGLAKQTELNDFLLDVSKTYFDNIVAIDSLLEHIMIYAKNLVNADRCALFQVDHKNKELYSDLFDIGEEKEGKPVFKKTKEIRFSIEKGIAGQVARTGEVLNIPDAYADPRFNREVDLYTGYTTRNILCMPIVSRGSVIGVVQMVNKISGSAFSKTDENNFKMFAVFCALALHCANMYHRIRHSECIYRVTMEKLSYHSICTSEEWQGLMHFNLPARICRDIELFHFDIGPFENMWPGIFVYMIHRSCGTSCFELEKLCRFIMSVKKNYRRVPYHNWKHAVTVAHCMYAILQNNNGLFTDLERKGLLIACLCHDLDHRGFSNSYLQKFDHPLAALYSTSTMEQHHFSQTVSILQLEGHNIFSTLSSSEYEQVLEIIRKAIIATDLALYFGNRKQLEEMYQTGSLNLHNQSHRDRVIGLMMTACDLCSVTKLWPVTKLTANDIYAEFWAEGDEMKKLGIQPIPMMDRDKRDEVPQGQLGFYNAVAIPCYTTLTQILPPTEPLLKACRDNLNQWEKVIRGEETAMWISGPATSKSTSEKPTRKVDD

The assay deals with rat PDE10 enzyme (Rattus norvegicus (Rat), UniProt Q9QYJ6). Briefly: PDE10 scintillation proximity assay (SPA), inhibition of rat PDE10 enzyme activity. The class given is biochemical. Conditions: geometric mean of 2-4 determinations unless otherwise indicated (b: ≧5 determinations; c: single determination). Here is the method:
PDE10 activity was measured using a scintillation assay (SPA-based method) similar to that previously described by Seeger, T. F. et al., Brain Research 985 (2003) 113-126. The compounds' relative activity as PDE10 inhibitors was investigated by assaying a fixed amount of enzyme in the presence of the test compound and low substrate concentration (cAMP) such that an IC50 could be determined. […] The assay is performed in a 384-well format with 50 μL assay buffer (50 mM TRIS pH 7.5; 1.3 mM MgCl2; 0.01% Brij) containing enough PDE10 to convert ˜20% of 20 nM ^3H-cAMP, and a range of inhibitors. Reactions are incubated for 30 minutes at 25° C. The addition of 20 μL of 8 mg/ml yttrium silicate SPA beads (PerkinElmer) stops the reaction. The plates are sealed (TopSeal, PerkinElmer) and the beads are allowed to settle for 8 hrs, after which they are read on the Trilux Microbeta overnight. ^1Rat enzyme preparation:^2Human enzyme preparation:
The recombinant Bacmid was isolated and used to transfect sf9 insect cells to generate a viral stock. To generate cell paste for purification, sf21 cells were infected with the virus stock and cells were harvested 72 hours after infection as described in Seeger, T. F. et al., Brain Research 985 (2003) 113-126. Insect cell paste was lysed and after centrifugation, the supernatant was chromatographed on Ni-NTA agarose (Qiagen) followed by Mono Q (GE Healthcare Life Sciences) as described in Seeger, T. F. et al., Brain Research 985 (2003) 113-126.
`CCn1c(C2CC2)nc2c(c1=O)CN(c1ncnn3c(C)nc([C@@H]4CCOC4)c13)CC2` [Example 150, 2-cyclopropyl-3-ethyl-6-{7-methyl-5-[(3S)-tetrahydrofuran-3-yl]imidazo[5,1-f][1,2,4]triazin-4-yl}-5,6,7,8-tetrahydropyrido[4,3-d]pyrimidin-4(3H)-one] yielded an IC50 of 0.0697 nM. As to `Cc1nc([C@H]2CCOC2)c2c(N3CCc4nn(C)cc4C3)ncnn12` [Example 99, 7-methyl-4-(2-methyl-2,4,6,7-tetrahydro-5H-pyrazolo[4,3-c]pyridin-5-yl)-5-[(3R)-tetrahydrofuran-3-yl]imidazo[5,1-f][1,2,4]triazine], 6.52 nM corresponded to half-maximal inhibition (IC50).

The molecule `Cc1ccccc1-c1nc(C)n2ncnc(N3CCc4c(c(C(C)C)nn4C)C3)c12` [Example 10, 4-(3-Isopropyl-1-methyl-1,4,6,7-tetrahydro-5H-pyrazolo[4,3-c]pyridin-5-yl)-7-methyl-5-(2-methylphenyl)imidazo[5,1-f][1,2,4]triazine] registered an IC50 of 0.56 nM. This IC50 lies about 12-fold lower than the previous one. In the case of `COc1cc2c(cc1OC)CN(c1ncnn3c(C)nc(C4CCOCC4)c13)CC2` [Example 59, 6,7-dimethoxy-2-[7-methyl-5-(tetrahydro-2H-pyran-4-yl)imidazo[5,1-f][1,2,4]triazin-4-yl]-1,2,3,4-tetrahydroisoquinoline] it was 3.1 nM; in that of `Cc1nn(C)c2c1CN(c1ncnn3c(C)nc(C4CCOCC4)c13)CC2` [Example 103, 4-(1,3-dimethyl-1,4,6,7-tetrahydro-5H-pyrazolo[4,3-c]pyridin-5-yl)-7-methyl-5-(tetrahydro-2H-pyran-4-yl)imidazo[5,1-f][1,2,4]triazine], 5.13 nM. Turning to `COc1cc2c(cc1OC)CN(c1ncnn3c(C)nc([C@H]4CCCO4)c13)CC2` [Example 82, 6,7-dimethoxy-2-{7-methyl-5-[(2R)-tetrahydrofuran-2-yl]imidazo[5,1-f][1,2,4]triazin-4-yl}-1,2,3,4-tetrahydroisoquinoline], it took 37.2 nM to reach half-maximal inhibition (IC50).

`Cc1onc2c1CN(c1ncnn3c(C)nc([C@@H]4CCOC4)c13)CC2` [Example 33, 7-methyl-4-(3-methyl-6,7-dihydro[1,2]oxazolo[4,3-c]pyridin-5(4H)-yl)-5-[(3S)-tetrahydrofuran-3-yl]imidazo[5,1-f][1,2,4]triazine] displayed an IC50 of 23.3 nM. This IC50 is about 1.6-fold lower than that of the molecule before.

`CCc1nn(C)c2c1CN(c1ncnn3c(C)nc(C4CCOCC4)c13)CC2` [Example 106, 4-(3-ethyl-1-methyl-1,4,6,7-tetrahydro-5H-pyrazolo[4,3-c]pyridin-5-yl)-7-methyl-5-(tetrahydro-2H-pyran-4-yl)imidazo[5,1-f][1,2,4]triazine]: the half-inhibitory concentration (IC50) was determined as 1.44 nM. This IC50 is about 16-fold lower than that of the molecule before. On to `Cc1nc([C@H]2CCOC2)c2c(N3CCc4nn(C(C)C)cc4C3)ncnn12` [Example 100, 7-methyl-4-[2-(propan-2-yl)-2,4,6,7-tetrahydro-5H-pyrazolo[4,3-c]pyridin-5-yl]-5-[(3R)-tetrahydrofuran-3-yl]imidazo[5,1-f][1,2,4]triazine], for which the IC50 was found to be 23 nM. As to `Cc1nn(C)c2c1CN(c1ncnn3c(C)nc([C@@H]4CCOC4)c13)CC2` [Example 93, 4-(1,3-dimethyl-1,4,6,7-tetrahydro-5H-pyrazolo[4,3-c]pyridin-5-yl)-7-methyl-5-[(3S)-tetrahydrofuran-3-yl]imidazo[5,1-f][1,2,4]triazine], the IC50 was 0.761 nM.

Regarding `Cc1nc([C@@H]2CCOC2)c2c(N3CCc4noc(C(C)C)c4C3)ncnn12` [Example 30, 7-methyl-4[3-(propan-2-yl)-6,7-dihydro[1,2]oxazolo[4,3-c]pyridin-5(4H)-yl]-5-[(3S)-tetrahydrofuran-3-yl]imidazo[5,1-f][1,2,4]triazine], the IC50 was 3.52 nM.

`Cc1nc(-c2ccccc2F)c2c(N3CCn4ncc(C(F)(F)F)c4C3)ncnn12` [Example 109, 5-(2-fluorophenyl)-7-methyl-4-[3-(trifluoromethyl)-6,7-dihydropyrazolo[1,5-a]pyrazin-5(4H)-yl]imidazo[5,1-f][1,2,4]triazine] registered an IC50 of 1.73 nM. Regarding `Cc1nc([C@@H]2CCOC2)c2c(N3CCc4nccnc4C3)ncnn12` [Example 171, 6-{7-methyl-5-[(3S)-tetrahydrofuran-3-yl]imidazo[5,1-f][1,2,4]triazin-4-yl}-5,6,7,8-tetrahydropyrido[3,4-b]pyrazine], the IC50 stood at 2.55 nM. In turn, `Cc1nc2c(s1)CN(c1ncnn3c(C)nc(-c4ccccc4F)c13)CC2` [Example 114, 5-(2-fluorophenyl)-7-methyl-4-(2-methyl-6,7-dihydro[1,3]thiazolo[5,4-c]pyridin-5(4H)-yl)imidazo[5,1-f][1,2,4]triazine] yielded a concentration for half-maximal inhibition (IC50) of 1.49 nM. This IC50 lies about 1.7-fold lower than the previous one. Under `CCc1c2c(nn1C)CCN(c1ncnn3c(C)nc(C4CCOCC4)c13)C2` [Example 105, 4-(3-ethyl-2-methyl-2,4,6,7-tetrahydro-5H-pyrazolo[4,3-c]pyridin-5-yl)-7-methyl-5-(tetrahydro-2H-pyran-4-yl)imidazo[5,1-f][1,2,4]triazine] stands 1.88 nM. With `COc1ccc2c(n1)CCN(c1ncnn3c(C)nc(-c4ccccc4F)c13)C2` [Example 66, 6-[5-(2-fluorophenyl)-7-methylimidazo[5,1-f][1,2,4]triazin-4-yl]-2-methoxy-5,6,7,8-tetrahydro-1,6-naphthyridine], the concentration for half-maximal inhibition (IC50) was 2.6 nM. On to `COc1cc2c(cc1OC)CN(c1ncnn3c(C)nc([C@@H]4CCCO4)c13)CC2` [Example 83, 6,7-dimethoxy-2-{7-methyl-5-[(2S)-tetrahydrofuran-2-yl]imidazo[5,1-f][1,2,4]triazin-4-yl}-1,2,3,4-tetrahydroisoquinoline], for which half-maximal inhibition (IC50) required 29.7 nM. Under `Cc1nc2c(c(OC(F)F)n1)CN(c1ncnn3c(C)nc([C@@H]4CCOC4)c13)CC2` [Example 36, 4-(difluoromethoxy)-2-methyl-6-{7-methyl-5-[(3S)-tetrahydrofuran-3-yl]imidazo[5,1-f][1,2,4]triazin-4-yl}-5,6,7,8-tetrahydropyrido[4,3-d]pyrimidine] stands 0.44 nM; under `Cc1nc(CC(C)C)c2c(N3CCc4ncccc4C3)ncnn12` [Example 97, 6-[7-methyl-5-(2-methylpropyl)imidazo[5,1-f][1,2,4]triazin-4-yl]-5,6,7,8-tetrahydro-1,6-naphthyridine], 9.05 nM; under `CCOc1nc(C)nc2c1CN(c1ncnn3c(C)nc(-c4ccccc4F)c13)CC2` [Example 123, 4-ethoxy-6-[5-(2-fluorophenyl)-7-methylimidazo[5,1-f][1,2,4]triazin-4-yl]-2-methyl-5,6,7,8-tetrahydropyrido[4,3-d]pyrimidine], 1.43 nM. Under `Cc1nc(-c2ccccc2F)c2c(N3CCc4noc(C5CC5)c4C3)ncnn12` [Example 46, 4-(3-cyclopropyl-6,7-dihydroisoxazolo[4,3-c]pyridin-5(4H)-yl)-5-(2-fluorophenyl)-7-methylimidazo[5,1-f][1,2,4]triazine] stands 1.98 nM. `COc1cc2c(cc1OC)CN(c1ncnn3c(C)nc(CC(C)C)c13)CC2` [Example 64, 2-(5-isobutyl-7-methylimidazo[5,1-f][1,2,4]triazin-4-yl)-6,7-dimethoxy-1,2,3,4-tetrahydroisoquinoline] returned an IC50 of 1.18 nM. Against the preceding molecule, the IC50 is about 1.7-fold lower. For the molecule `COc1ccc2c(n1)CN(c1ncnn3c(C)nc(-c4ccccc4F)c13)CC2` [Example 69, 7-[5-(2-fluorophenyl)-7-methylimidazo[5,1-f][1,2,4]triazin-4-yl]-2-methoxy-5,6,7,8-tetrahydro-1,7-naphthyridine], it took 7.3 nM to reach half-maximal inhibition (IC50). Compared with the last molecule, the IC50 is about 6.2-fold higher. In turn, `Cc1nc(-c2ccccc2F)c2c(N3CCc4nc(N(C)C)ccc4C3)ncnn12` [Example 67, 6-[5-(2-fluorophenyl)-7-methylimidazo[5,1-f][1,2,4]triazin-4-yl]-N,N-dimethyl-5,6,7,8-tetrahydro-1,6-naphthyridin-2-amine] came in with a half-inhibitory concentration (IC50) of 0.325 nM. On to `COc1ccc2c(c1OC)CN(c1ncnn3c(C)nc([C@@H]4CCOC4)c13)CC2` [Example 17, 7,8-dimethoxy-2-{7-methyl-5-[(3S)-tetrahydrofuran-3-yl]imidazo[5,1-f][1,2,4]triazin-4-yl}-1,2,3,4-tetrahydroisoquinoline], for which the IC50 is less than 0.24 nM. As to `Cc1ccc2c(n1)CN(c1ncnn3c(C)nc(-c4ccccc4F)c13)CC2` [Example 73, 7-[5-(2-fluorophenyl)-7-methylimidazo[5,1-f][1,2,4]triazin-4-yl]-2-methyl-5,6,7,8-tetrahydro-1,7-naphthyridine], the IC50 worked out at 6.81 nM. `COc1cc2c(cc1OC)CN(c1ncnn3c(C)nc(-c4ccccc4F)c13)CC2` [Example 42, 2-[5-(2-fluorophenyl)-7-methylimidazo[5,1-f][1,2,4]triazin-4-yl]-6,7-dimethoxy-1,2,3,4-tetrahydroisoquinoline] showed a half-inhibitory concentration (IC50) of less than 3.23 nM. On to `Cc1nc2c(s1)CN(c1ncnn3c(C)nc([C@H]4CCCO4)c13)CC2` [Example 81], for which half-maximal inhibition (IC50) was put at 9.73 nM. In other words, the single-digit nanomolar range. On to `COc1nccc2c1CN(c1ncnn3c(C)nc(-c4ccccc4F)c13)CC2` [Example 68, 2-[5-(2-fluorophenyl)-7-methylimidazo[5,1-f][1,2,4]triazin-4-yl]-8-methoxy-1,2,3,4-tetrahydro-2,7-naphthyridine], for which the half-maximal inhibitory concentration (IC50) is 0.895 nM.

The IC50 is the concentration needed to halve the response being measured. Low values mean higher potency, high ones lower potency.
